Experimental data from patent publication US7638306B2, “Process of increasing cellular production of biologically active compounds” (Fermalogic, Inc., priority 2003, dated 2009).
Where a name gives a salt, the structure may show the parent alone.

Columns and labels:
[1] = system: wild type A. erythreum; experiment: growth inhibition of wild type A. erythreum by kanamycin; format: cell-based, Aeromicrobium erythreum
[2] = system: A. erythreum mutants containing the aph1 gene; conditions: aphI (aph1) gene from Tn903 expressed in A. erythreum
From the text: E. coli library of A. erythreum genomic DNA. The plasmid library was constructed in the A. erythreum integration vector pFL2082, a pUC19-derived vector containing the aphI gene from Tn903. […] Several different vector preparations were dephosphorylated with different concentrations of CIAP or SAP in order to obtain the highest ratio of white to blue colonies after ligation. […] To generate a library that represented in excess of 5-fold coverage of the chromosome (estimated A. erythreum genome size somewhere between 4-8 Mb, representing about 4,000-8,000 coding sequences), 100,000 white colonies were harvested into 25 pools. This large number of colonies was chosen based on the assumption that some genes will be disproportionately represented over others after selection in E. coli. The colonies were split among 25 pools (ca. 4,000 colonies/pool) to increase randomness. To determine the insert size of random plasmid isolates a total of 65 white colonies were analyzed by restriction analysis of their plasmid DNA. […] This library was designated A. erythreum genomic library or library 1.
To generate a gene replacement library we developed a rapid, simple visual screen that took advantage of the Kn^r phenotype of single crossover mutants and the Kn^s phenotype of gene replacement mutants. […]

Compound: NC[C@H]1O[C@H](O[C@H]2[C@H](O)[C@@H](O[C@H]3O[C@H](CO)[C@@H](O)[C@H](N)[C@H]3O)[C@H](N)C[C@@H]2N)[C@H](O)[C@@H](O)[C@@H]1O [Kanamycin sulfate]
- kanamycin concentration to which A. erythreum is sensitive (growth inhibited) [1]: ≥ 5 µg/mL

Compound: NC[C@H]1O[C@H](O[C@H]2[C@H](O)[C@@H](O[C@H]3O[C@H](CO)[C@@H](O)[C@H](N)[C@H]3O)[C@H](N)C[C@@H]2N)[C@H](O)[C@@H](O)[C@@H]1O [kanamycin]
- kanamycin concentration to which A. erythreum is sensitive (growth inhibited) [1]: ≥ 2 µg/mL
- kanamycin concentration up to which resistance is conferred with good growth [2]: 10 to 15 µg/mL
